From ChEMBL document CHEMBL1201862, “PubChem BioAssay data set” (2004)
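Where inhibition never reached the appropriate level, the endpoint shown equals the highest concentration tested. Otherwise, values were interpolated linearly from a five-concentration, 48-hour dose response in 96-well plates. GI50 is the concentration that inhibits growth by half.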 The source made the active and inactive calls. No stated cut-off is given here; in the data, active = GI50 up to about 1.1 µM and inactive = higher.

What was measured:
Test in all cases: NCI anticancer screen, dose series, 48 h
A498 = tested on: A498
EKVX = tested on: EKVX
IGROV-1 = tested on: IGROV-1
KM12 = tested on: KM12
LOX IMVI = tested on: LOX IMVI
MDA-MB-435 = tested on: MDA-MB-435
NCI-H226 = tested on: NCI-H226
NCI/ADR-RES = tested on: NCI/ADR-RES
OVCAR-5 = tested on: OVCAR-5
SF-295 = tested on: SF-295
SNB-19 = tested on: SNB-19
SNB-75 = tested on: SNB-75
TK-10 = tested on: TK-10
U-251 = tested on: U-251
UACC-62 = tested on: UACC-62
UO-31 = tested on: UO-31
Hs-578T = tested on: Hs-578T
SN12C = tested on: SN12C
RXF 393 = tested on: RXF 393

Compound	GI50 (A498)	GI50 (EKVX)	GI50 (IGROV-1)	GI50 (KM12)	GI50 (LOX IMVI)	GI50 (MDA-MB-435)	GI50 (NCI-H226)	GI50 (NCI/ADR-RES)	GI50 (OVCAR-5)	GI50 (SF-295)	GI50 (SNB-19)	GI50 (SNB-75)	GI50 (TK-10)	GI50 (U-251)	GI50 (UACC-62)	GI50 (UO-31)	GI50 (Hs-578T)	GI50 (SN12C)	GI50 (RXF 393)
CCC(C(=O)C(=O)OC)P1(=O)OC(C)(C)CN1C(C)(C)C (centres undefined)	20.5 µM (inactive)	> 100 µM (inactive)	> 100 µM (inactive)	> 100 µM (inactive)	> 100 µM (inactive)	> 100 µM (inactive)	> 100 µM (inactive)	> 100 µM (inactive)	> 100 µM (inactive)	> 100 µM (inactive)	> 100 µM (inactive)	> 100 µM (inactive)	> 100 µM (inactive)	> 100 µM (inactive)	22.6 µM (inactive)	> 100 µM (inactive)	–	–	–
COc1ccc(C2SC(=N)Nc3c2c(C)nn3C(=O)Cc2ccccc2)cc1 (centres undefined)	> 100 µM (inactive)	> 100 µM (inactive)	> 100 µM (inactive)	> 100 µM (inactive)	> 100 µM (inactive)	> 100 µM (inactive)	> 100 µM (inactive)	–	–	> 100 µM (inactive)	> 100 µM (inactive)	10.9 µM (inactive)	> 100 µM (inactive)	–	> 100 µM (inactive)	> 100 µM (inactive)	> 100 µM (inactive)	> 100 µM (inactive)	–
Cc1nc(O)nc(N/N=C/c2c3ccccc3c(Cl)c3ccccc23)c1C(=O)Nc1ccc(Cl)cc1	47.5 µM (inactive)	–	71.1 µM (inactive)	–	38.9 µM (inactive)	> 100 µM (inactive)	74 µM (inactive)	–	> 100 µM (inactive)	–	92.5 µM (inactive)	> 100 µM (inactive)	47.6 µM (inactive)	37.9 µM (inactive)	50.5 µM (inactive)	> 100 µM (inactive)	–	> 100 µM (inactive)	–
C=CCN(c1cc(OCc2ccccc2)c2c(c1)c(C)cn2S(=O)(=O)c1ccccc1)S(C)(=O)=O	–	> 100 µM (inactive)	> 100 µM (inactive)	> 100 µM (inactive)	> 100 µM (inactive)	> 100 µM (inactive)	> 100 µM (inactive)	> 100 µM (inactive)	> 100 µM (inactive)	> 100 µM (inactive)	> 100 µM (inactive)	> 100 µM (inactive)	> 100 µM (inactive)	> 100 µM (inactive)	> 100 µM (inactive)	–	> 100 µM (inactive)	> 100 µM (inactive)	> 100 µM (inactive)
COC(=O)CCCc1ccc2c(c1)CC1(C2)Cc2cc3c(cc2C1)CCCC3	41.9 µM (inactive)	35.2 µM (inactive)	44.9 µM (inactive)	36.9 µM (inactive)	30.3 µM (inactive)	13.9 µM (inactive)	38.1 µM (inactive)	47.6 µM (inactive)	> 100 µM (inactive)	45.7 µM (inactive)	–	–	> 100 µM (inactive)	40.5 µM (inactive)	21.1 µM (inactive)	86.7 µM (inactive)	29.9 µM (inactive)	40.6 µM (inactive)	24.7 µM (inactive)
COc1cc(CNc2nc3cc(C(F)(F)F)ccc3nc2C)cc(OC)c1OC	–	17 µM (inactive)	14.7 µM (inactive)	15.9 µM (inactive)	13.9 µM (inactive)	19.5 µM (inactive)	> 10 µM (inactive)	> 10 µM (inactive)	–	19.1 µM (inactive)	35.1 µM (inactive)	19.4 µM (inactive)	15.7 µM (inactive)	15.3 µM (inactive)	7.96 µM (inactive)	17.7 µM (inactive)	13.5 µM (inactive)	14.7 µM (inactive)	16.6 µM (inactive)
COc1cc(/C=N/N=C(\N)NO)ccc1O	44.9 µM (inactive)	71.9 µM (inactive)	> 100 µM (inactive)	77.1 µM (inactive)	30.5 µM (inactive)	–	14.1 µM (inactive)	–	18.1 µM (inactive)	26.1 µM (inactive)	> 100 µM (inactive)	–	–	91.2 µM (inactive)	30.4 µM (inactive)	41.4 µM (inactive)	–	> 100 µM (inactive)	31.5 µM (inactive)
CC1=N[C@](C)(C2CC3C=CC2C3=O)COC1=O (some centres undefined)	> 100 µM (inactive)	> 100 µM (inactive)	> 100 µM (inactive)	> 100 µM (inactive)	–	> 100 µM (inactive)	> 100 µM (inactive)	–	> 100 µM (inactive)	> 100 µM (inactive)	> 100 µM (inactive)	> 100 µM (inactive)	> 100 µM (inactive)	> 100 µM (inactive)	> 100 µM (inactive)	> 100 µM (inactive)	> 100 µM (inactive)	> 100 µM (inactive)	> 100 µM (inactive)
N#CC1(C#N)C(C#N)(C#N)C1(C#N)C(N)=O	> 100 µM (inactive)	> 100 µM (inactive)	> 100 µM (inactive)	> 100 µM (inactive)	> 100 µM (inactive)	> 100 µM (inactive)	> 100 µM (inactive)	> 100 µM (inactive)	> 100 µM (inactive)	> 100 µM (inactive)	> 100 µM (inactive)	–	> 100 µM (inactive)	> 100 µM (inactive)	> 100 µM (inactive)	> 100 µM (inactive)	> 100 µM (inactive)	> 100 µM (inactive)	> 100 µM (inactive)
CC(=O)Nc1ccc(NC(=O)CC(=O)Nc2ccc(NC(C)=O)cc2)cc1	> 100 µM (inactive)	> 100 µM (inactive)	> 100 µM (inactive)	> 100 µM (inactive)	> 100 µM (inactive)	> 100 µM (inactive)	> 100 µM (inactive)	> 100 µM (inactive)	–	> 100 µM (inactive)	> 100 µM (inactive)	–	> 100 µM (inactive)	32.1 µM (inactive)	5.74 µM (inactive)	> 100 µM (inactive)	> 100 µM (inactive)	> 100 µM (inactive)	–
O=C(NC(CCCCN1C(=O)c2ccccc2C1=O)P(=O)(Oc1ccccc1)Oc1ccccc1)OCc1ccccc1 (centres undefined)	–	> 100 µM (inactive)	> 100 µM (inactive)	> 100 µM (inactive)	–	> 100 µM (inactive)	> 100 µM (inactive)	> 100 µM (inactive)	> 100 µM (inactive)	> 100 µM (inactive)	> 100 µM (inactive)	0.01 µM (active)	> 100 µM (inactive)	> 100 µM (inactive)	> 100 µM (inactive)	> 100 µM (inactive)	> 100 µM (inactive)	> 100 µM (inactive)	> 100 µM (inactive)
CC(=O)OCC1OC(n2c(C)c(C(C)=O)c(-c3cccc4ccccc34)c(C#N)c2=S)C(OC(C)=O)C(OC(C)=O)C1OC(C)=O (centres undefined)	> 100 µM (inactive)	> 100 µM (inactive)	> 100 µM (inactive)	> 100 µM (inactive)	> 100 µM (inactive)	> 100 µM (inactive)	> 100 µM (inactive)	> 100 µM (inactive)	> 100 µM (inactive)	> 100 µM (inactive)	> 100 µM (inactive)	25.9 µM (inactive)	> 100 µM (inactive)	> 100 µM (inactive)	> 100 µM (inactive)	< 0.01 µM (active)	–	> 100 µM (inactive)	> 100 µM (inactive)
O=C1CC=C2C3CC4N(CCC45c4ccccc4N1C25)C/C3=C\CO (centres undefined)	> 100 µM (inactive)	> 100 µM (inactive)	> 100 µM (inactive)	> 100 µM (inactive)	> 100 µM (inactive)	> 100 µM (inactive)	> 100 µM (inactive)	> 100 µM (inactive)	> 100 µM (inactive)	> 100 µM (inactive)	> 100 µM (inactive)	> 100 µM (inactive)	> 100 µM (inactive)	> 100 µM (inactive)	> 100 µM (inactive)	> 100 µM (inactive)	> 100 µM (inactive)	> 100 µM (inactive)	–
O=C1[C@H](O)[C@@H]2C(O)O[C@H]3[C@@H]2N1C[C@H]3[Si](c1ccccc1)(c1ccccc1)c1ccccc1 (some centres undefined)	> 100 µM (inactive)	> 100 µM (inactive)	> 100 µM (inactive)	> 100 µM (inactive)	> 100 µM (inactive)	> 100 µM (inactive)	> 100 µM (inactive)	> 100 µM (inactive)	> 100 µM (inactive)	> 100 µM (inactive)	> 100 µM (inactive)	5.94 µM (inactive)	> 100 µM (inactive)	> 100 µM (inactive)	> 100 µM (inactive)	> 100 µM (inactive)	–	–	20.2 µM (inactive)
COc1ccc2c(c1OC)C(Br)CCC(Br)(Br)C2=O (centres undefined)	16 µM (inactive)	14.1 µM (inactive)	5.83 µM (inactive)	16.3 µM (inactive)	2.93 µM (inactive)	6.41 µM (inactive)	14 µM (inactive)	14.1 µM (inactive)	17.5 µM (inactive)	17.6 µM (inactive)	15.5 µM (inactive)	–	6.79 µM (inactive)	16.7 µM (inactive)	14.6 µM (inactive)	4.81 µM (inactive)	18.5 µM (inactive)	4.83 µM (inactive)	3.91 µM (inactive)
CC1=C2C(=O)O[C@@H](c3ccoc3)[C@]2(C)CCC1=O [FRAXINELLONONE]	> 100 µM (inactive)	> 100 µM (inactive)	> 100 µM (inactive)	> 100 µM (inactive)	> 100 µM (inactive)	> 100 µM (inactive)	> 100 µM (inactive)	> 100 µM (inactive)	> 100 µM (inactive)	> 100 µM (inactive)	> 100 µM (inactive)	> 100 µM (inactive)	–	> 100 µM (inactive)	> 100 µM (inactive)	> 100 µM (inactive)	–	> 100 µM (inactive)	–
